From patent US9200008B2 (ASKA PHARMACEUTICAL CO., LTD., priority 2010, dated 2015)

Tested on: Human prostate cancer cell lines (PC-3 cells)
Experiment: Measurement of cell death-inducing activity (Test Example 1)
Type: cell-based
Conditions: PC-3, 48 h, 48 hours after addition, tested at 10, 1, 0.1, 0.025 and 0.00625 μmol/L, qualitative evaluation of 10 fields, read-out: Concentration showing the cell death-inducing activity (cell death-inducing rate not less than 40%)
Summary of the method: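 PC-3 cells seeded at 1×10^5 cells/well and grown 48 h at 37 °C, 5% CO2, then exposed to compound at 10, 1, 0.1, 0.025 and 0.00625 μmol/L (DMSO control) for a further 48 h. Activity was called where cell death-inducing rate was not less than 40%.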

| Structure (SMILES) | minimal effective concentration |
| --- | --- |
| COc1ccccc1-c1cc(COC(=O)Nc2ccc3c(c2)nc2n3CCCC2)n(C)n1 [Example 13-114] | 0.1 µM |
| CCn1nc(-c2ccccc2OC)cc1COC(=O)Nc1ccc2c(c1)nc1n2CCCC1 [Example 13-115] | 0.1 µM |
| COc1cc(F)ccc1-c1cc(COC(=O)Nc2ccc3c(c2)nc2n3CCCC2)n(C)n1 [Example 13-116] | 0.025 µM |
| CCn1nc(-c2ccc(F)cc2OC)cc1COC(=O)Nc1ccc2c(c1)nc1n2CCCC1 [Example 13-117] | 0.1 µM |
| COc1cc(Cl)ccc1-c1cc(COC(=O)Nc2ccc3c(c2)nc2n3CCCC2)n(C)n1 [Example 13-118] | 0.00625 µM |
| CCn1nc(-c2ccc(Cl)cc2OC)cc1COC(=O)Nc1ccc2c(c1)nc1n2CCCC1 [Example 13-119] | 0.025 µM |
| COc1cc(C)ccc1-c1cc(COC(=O)Nc2ccc3c(c2)nc2n3CCCC2)n(C)n1 [Example 13-120] | 0.025 µM |
| CCn1nc(-c2ccc(C)cc2OC)cc1COC(=O)Nc1ccc2c(c1)nc1n2CCCC1 [Example 13-121] | 0.025 µM |
| Cc1ccc(-c2cc(COC(=O)Nc3ccc4c(c3)nc3n4CCCC3)n(C)n2)c(C)c1 [Example 13-122] | 0.025 µM |
| CCn1nc(-c2ccc(C)cc2C)cc1COC(=O)Nc1ccc2c(c1)nc1n2CCCC1 [Example 13-123] | 0.025 µM |
| CCn1nc(-c2ccccc2OC)cc1COC(=O)Nc1ccc2c(cnn2C)c1 [Example 13-124] | 10 µM |
| COc1cc(F)ccc1-c1cc(COC(=O)Nc2ccc3c(cnn3C)c2)n(C)n1 [Example 13-125] | 1 µM |
| CCn1nc(-c2ccc(F)cc2OC)cc1COC(=O)Nc1ccc2c(cnn2C)c1 [Example 13-126] | 10 µM |
| COc1cc(Cl)ccc1-c1cc(COC(=O)Nc2ccc3c(cnn3C)c2)n(C)n1 [Example 13-127] | 0.1 µM |
| CCn1nc(-c2ccc(Cl)cc2OC)cc1COC(=O)Nc1ccc2c(cnn2C)c1 [Example 13-128] | 1 µM |
| CCn1ncc2cc(NC(=O)OCc3cc(-c4ccc(Cl)cc4OC)nn3C)ccc21 [Example 13-129] | 0.025 µM |
| CCn1nc(-c2ccc(C)cc2OC)cc1COC(=O)Nc1ccc2c(cnn2C)c1 [Example 13-130] | 1 µM |
| Cc1ccc(-c2cc(COC(=O)Nc3ccc4c(cnn4C)c3)n(C)n2)c(C)c1 [Example 13-131] | 1 µM |
| CCn1nc(-c2ccc(C)cc2C)cc1COC(=O)Nc1ccc2c(cnn2C)c1 [Example 13-132] | 1 µM |
| CCn1cc2cc(NC(=O)OCc3cc(-c4ccc(Cl)cc4OC)nn3C)ccc2n1 [Example 13-133] | 0.00625 µM |
| COc1cc(F)ccc1-c1cc(COC(=O)Nc2ccc3c(c2)ncn3C)nn1C [Example 13-135] | 0.1 µM |
| COc1cc(Cl)ccc1-c1cc(COC(=O)Nc2ccc3c(c2)ncn3C)nn1C [Example 13-137] | 10 µM |

| Structure (SMILES) | minimal effective concentration |
| --- | --- |
| Cc1ccc(-c2cc(COC(=O)Nc3ccc4c(c3)ncn4C)nn2C)c(C)c1 [Example 13-141] | 10 µM |
| COc1cc(Cl)ccc1-c1cc(COC(=O)Nc2ccc3c(c2)nc2n3CCOC2)nn1C [Example 13-144] | 10 µM |
| CCc1nc(-c2ccc(F)cc2C)sc1COC(=O)Nc1ccc2c(c1)ncn2C [Example 13-149] | 0.025 µM |
| CCc1nc(-c2ccc(F)cc2C)sc1COC(=O)Nc1ccc2c(c1)nc1n2CCOC1 [Example 13-150] | 0.025 µM |
| COc1ccc(CN(C)NC(=O)c2sc(-c3ccc(Cl)cc3OC)nc2C)cc1 [Example 16-1, 2-(4-Chloro-2-methoxyphenyl)-4-methylthiazole-5-carboxylic acid N′-(4-methoxybenzyl)-N′-methyl hydrazide] | 0.1 µM |
| COc1ccc(CN(C)NC(=O)c2sc(-c3ccc(Cl)cc3)nc2C)cc1 [Example 16-2] | 10 µM |
| COc1ccc(CN(C)NC(=O)c2sc(-c3ccccc3C)nc2C)cc1 [Example 16-3] | 1 µM |
| COc1ccc(CN(C)NC(=O)c2sc(-c3ccccc3OC)nc2C)cc1 [Example 16-4] | 1 µM |
| COc1ccc(CN(C)NC(=O)c2sc(-c3cccc(C)c3C)nc2C)cc1 [Example 16-5] | 10 µM |
| COc1ccc(CN(C)NC(=O)c2sc(-c3ccc(Cl)cc3C)nc2C)cc1 [Example 16-6] | 0.1 µM |
| COc1ccc(CN(C)NC(=O)c2sc(-c3ccc(F)cc3F)nc2C)cc1 [Example 16-7] | 1 µM |
| COc1ccc(CN(C)NC(=O)c2sc(-c3ccc(F)cc3OC)nc2C)cc1 [Example 16-8] | 0.1 µM |
| COc1ccc(CN(C)NC(=O)c2sc(-c3ccc(OC)cc3Cl)nc2C)cc1 [Example 16-9] | 10 µM |
| COc1ccc(CN(C)NC(=O)c2sc(-c3ccc(Cl)cc3Cl)nc2C)cc1 [Example 16-10] | 1 µM |
| COc1ccc(CN(C)NC(=O)c2sc(-c3ccc(C)cc3C)nc2C)cc1 [Example 16-11] | 0.1 µM |
| CCN(Cc1ccc(OC)cc1)NC(=O)c1sc(-c2ccccc2OC)nc1C [Example 16-12] | 1 µM |
| CCN(Cc1ccc(OC)cc1)NC(=O)c1sc(-c2ccc(Cl)cc2OC)nc1C [Example 16-13] | 0.1 µM |
| CCN(Cc1ccc(OC)cc1)NC(=O)c1sc(-c2cccc(C)c2C)nc1C [Example 16-14] | 10 µM |
| CCN(Cc1ccc(OC)cc1)NC(=O)c1sc(-c2ccc(Cl)cc2C)nc1C [Example 16-15] | 1 µM |
| COc1ccc(CN(C)NC(=O)c2sc(-c3ccc(Cl)cc3OC)nc2C)cc1OC [Example 16-16] | 1 µM |
| COc1ccc(CN(C)NC(=O)c2sc(-c3ccc(Cl)cc3C)nc2C)cc1OC [Example 16-17] | 1 µM |
| COc1cc(Cl)ccc1-c1nc(C)c(C(=O)NN(C)Cc2ccc3c(c2)CCO3)s1 [Example 16-18] | 1 µM |

| Structure (SMILES) | minimal effective concentration |
| --- | --- |
| CCOc1ccc(CN(C)NC(=O)c2sc(-c3ccc(Cl)cc3OC)nc2C)cc1 [Example 16-19] | 0.1 µM |
| COc1ccc(CN(C)NC(=O)c2sc(-c3ccc(Cl)cc3OC)nc2C)cc1F [Example 16-20] | 0.1 µM |
| COc1ccc(CN(C)NC(=O)c2sc(-c3ccc(F)cc3F)nc2C)cc1F [Example 16-21] | 1 µM |
| COc1cc(Cl)ccc1-c1nc(C)c(C(=O)NN(C)Cc2ccc(SC)cc2)s1 [Example 16-22] | 1 µM |
| COc1ccc(CN(C)NC(=O)c2sc(-c3ccc(Cl)cc3OC)nc2C)cc1C [Example 16-23] | 1 µM |
| COc1ccc(CN(C)NC(=O)c2sc(-c3ccc(Cl)cc3OC)nc2C)cc1O [Example 16-24] | 0.1 µM |
| COc1ccc(CN(C)NC(=O)c2sc(-c3ccc(Cl)cc3C)nc2C)cc1O [Example 16-25] | 0.1 µM |
| Cc1cc(Cl)ccc1-c1nc(C)c(C(=O)NNCc2ccc3c(ccn3C)c2)s1 [Example 17-1] | 0.1 µM |
| Cc1cc(Cl)ccc1-c1nc(C)c(C(=O)NN(C)Cc2ccc3c(ccn3C)c2)s1 [Example 17-2] | 0.025 µM |
| COc1cc(Cl)ccc1-c1nc(C)c(C(=O)NNCc2cc(C)c(O)c(C)c2)s1 [Example 17-3, 2-(4-Chloro-2-methoxyphenyl)-4-methylthiazole-5-carboxylic acid N′-(4-hydroxy-3,5-dimethylbenzyl)hydrazide] | 1 µM |
| COc1cc(Cl)ccc1-c1nc(C)c(C(=O)NN(C)Cc2cc(C)c(O)c(C)c2)s1 [Example 17-4, 2-(4-Chloro-2-methoxyphenyl)-4-methylthiazole-5-carboxylic acid N′-(4-hydroxy-3,5-dimethylbenzyl)-N′-methyl hydrazide] | 10 µM |
| COc1ccc(CN(C)NC(=O)c2cc(-c3ccc(Cl)cc3OC)n[nH]2)cc1 [Example 18-1, 5-(4-Chloro-2-methoxyphenyl)-2H-pyrazole-3-carboxylic acid N′-(4-methoxybenzyl)-N′-methyl hydrazide] | 1 µM |
| CCN(Cc1ccc(OC)cc1)NC(=O)c1cc(-c2ccc(Cl)cc2OC)n[nH]1 [Example 18-2, 5-(4-Chloro-2-methoxyphenyl)-2H-pyrazole-3-carboxylic acid N′-ethyl-N′-(4-methoxybenzyl)hydrazide] | 1 µM |
| COc1ccc(CN(C)NC(=O)c2cc(-c3ccc(Cl)cc3OC)ns2)cc1 [Example 19-1, 3-(4-Chloro-2-methoxyphenyl)isothiazole-5-carboxylic acid N′-(4-methoxybenzyl)-N′-methyl hydrazide] | 10 µM |
| CCN(Cc1ccc(OC)cc1)NC(=O)c1cc(-c2ccc(Cl)cc2OC)ns1 [Example 19-2, 3-(4-Chloro-2-methoxyphenyl)isothiazole-5-carboxylic acid N′-(4-methoxybenzyl)-N′-ethyl hydrazide] | 10 µM |
| COc1ccc(CN(C)NC(=O)c2cc(-c3ccccc3OC)oc2C)cc1 [Example 20-1, 5-(2-Methoxyphenyl)-2-methylfuran-3-carboxylic acid N′-(4-methoxybenzyl)-N′-methyl hydrazide] | 10 µM |
| O=C(N/N=C/c1ccc(O)cc1Cl)c1cc(-c2ccc(Cl)cc2Cl)n[nH]1 [Example 21-8] | 10 µM |
| Cc1cc(/C=N/NC(=O)c2cc(-c3ccc(Cl)cc3Cl)n[nH]2)cc(C)c1O [Example 21-11] | 1 µM |
| O=C(N/N=C/c1ccc(O)c(Cl)c1)c1cc(-c2ccc(Cl)cc2Cl)n[nH]1 [Example 21-13] | 10 µM |
| O=C(N/N=C/c1ccc([N+](=O)[O-])c(O)c1)c1cc(-c2ccc(Cl)cc2Cl)n[nH]1 [Example 21-15] | 10 µM |
